{"source": "patent US20080051466A1", "about": "“Isoalpha acid based protein kinase modulation cancer treatment” (Metaproteomics, LLC, priority 2006, published 2008)", "assay_in_all_cases": "KinaseProfiler Assay", "assay_type_in_all_cases": "biochemical", "key": {"PrKX": {"molecular_target": "PrKX (Homo sapiens, UniProt P51817)", "sequence (P51817 whole entry)": "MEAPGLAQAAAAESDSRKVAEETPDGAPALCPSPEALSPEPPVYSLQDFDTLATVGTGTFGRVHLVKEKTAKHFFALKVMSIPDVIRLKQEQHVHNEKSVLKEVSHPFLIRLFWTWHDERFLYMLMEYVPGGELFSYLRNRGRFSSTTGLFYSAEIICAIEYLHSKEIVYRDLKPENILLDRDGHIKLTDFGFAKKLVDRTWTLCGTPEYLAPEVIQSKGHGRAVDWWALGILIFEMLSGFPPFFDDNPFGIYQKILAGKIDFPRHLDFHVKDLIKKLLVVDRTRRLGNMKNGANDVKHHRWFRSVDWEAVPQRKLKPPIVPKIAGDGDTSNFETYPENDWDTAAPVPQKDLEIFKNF", "conditions": "read-out: PrKX, % of Control"}, "p70S6K": {"molecular_target": "p70S6K (Homo sapiens, UniProt P23443)", "sequence (P23443 whole entry)": "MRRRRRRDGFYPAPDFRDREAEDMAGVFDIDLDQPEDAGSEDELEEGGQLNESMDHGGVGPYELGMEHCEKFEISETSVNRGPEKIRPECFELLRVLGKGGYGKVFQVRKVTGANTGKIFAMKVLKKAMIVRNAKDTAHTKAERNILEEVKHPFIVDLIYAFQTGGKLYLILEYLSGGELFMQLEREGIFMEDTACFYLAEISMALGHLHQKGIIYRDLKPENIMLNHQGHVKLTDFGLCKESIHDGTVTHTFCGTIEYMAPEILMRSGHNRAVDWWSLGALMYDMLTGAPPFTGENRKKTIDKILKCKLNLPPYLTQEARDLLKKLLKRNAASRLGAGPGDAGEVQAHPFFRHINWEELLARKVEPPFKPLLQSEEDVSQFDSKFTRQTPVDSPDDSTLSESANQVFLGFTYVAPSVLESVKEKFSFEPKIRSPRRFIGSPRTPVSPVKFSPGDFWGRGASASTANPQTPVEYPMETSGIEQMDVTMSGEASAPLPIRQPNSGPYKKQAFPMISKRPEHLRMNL", "conditions": "read-out: p70S6K, % of Control"}, "PAK6": {"molecular_target": "PAK6 (Homo sapiens, UniProt Q9NQU5)", "sequence (Q9NQU5 whole entry)": "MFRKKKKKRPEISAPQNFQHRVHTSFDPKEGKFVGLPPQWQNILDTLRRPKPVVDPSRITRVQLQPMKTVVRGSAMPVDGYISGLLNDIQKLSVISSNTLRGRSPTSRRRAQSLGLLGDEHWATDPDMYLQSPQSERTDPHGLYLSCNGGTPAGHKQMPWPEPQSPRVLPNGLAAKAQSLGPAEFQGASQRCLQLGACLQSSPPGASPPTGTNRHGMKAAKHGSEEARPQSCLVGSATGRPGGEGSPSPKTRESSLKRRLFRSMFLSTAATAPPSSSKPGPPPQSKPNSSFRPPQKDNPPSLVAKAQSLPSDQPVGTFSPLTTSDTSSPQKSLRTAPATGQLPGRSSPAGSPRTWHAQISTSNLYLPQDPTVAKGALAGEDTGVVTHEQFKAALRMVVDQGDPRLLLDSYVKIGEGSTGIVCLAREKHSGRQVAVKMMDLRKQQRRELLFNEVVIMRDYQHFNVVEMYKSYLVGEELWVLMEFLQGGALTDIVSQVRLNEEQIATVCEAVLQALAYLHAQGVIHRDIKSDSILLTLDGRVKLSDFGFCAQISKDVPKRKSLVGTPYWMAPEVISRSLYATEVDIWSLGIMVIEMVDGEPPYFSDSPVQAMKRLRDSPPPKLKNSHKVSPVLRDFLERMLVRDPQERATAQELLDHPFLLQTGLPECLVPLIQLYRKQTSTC", "conditions": "read-out: PAK6, % of Control"}, "Fyn": {"molecular_target": "Fyn (Homo sapiens, UniProt P06241)", "sequence (P06241 whole entry)": "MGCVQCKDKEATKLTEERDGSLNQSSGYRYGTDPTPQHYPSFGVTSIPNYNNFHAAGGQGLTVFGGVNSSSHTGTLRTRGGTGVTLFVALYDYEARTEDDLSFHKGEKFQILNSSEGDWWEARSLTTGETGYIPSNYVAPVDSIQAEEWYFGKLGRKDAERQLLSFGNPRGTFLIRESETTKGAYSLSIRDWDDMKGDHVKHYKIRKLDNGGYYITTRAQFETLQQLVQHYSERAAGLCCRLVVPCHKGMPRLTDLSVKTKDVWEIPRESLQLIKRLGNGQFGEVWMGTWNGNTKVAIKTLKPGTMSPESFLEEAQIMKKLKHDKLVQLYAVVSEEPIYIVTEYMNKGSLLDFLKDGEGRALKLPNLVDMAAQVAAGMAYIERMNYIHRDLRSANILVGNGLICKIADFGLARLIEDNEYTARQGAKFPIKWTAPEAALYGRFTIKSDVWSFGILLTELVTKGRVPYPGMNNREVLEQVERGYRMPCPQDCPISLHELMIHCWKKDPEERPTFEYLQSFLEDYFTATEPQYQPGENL", "conditions": "read-out: Fyn, % of Control"}, "SGK2": {"molecular_target": "T1, SGK2 (Homo sapiens, UniProt Q9HBY8)", "T1 sequence (Q9HBY8 1-367)": "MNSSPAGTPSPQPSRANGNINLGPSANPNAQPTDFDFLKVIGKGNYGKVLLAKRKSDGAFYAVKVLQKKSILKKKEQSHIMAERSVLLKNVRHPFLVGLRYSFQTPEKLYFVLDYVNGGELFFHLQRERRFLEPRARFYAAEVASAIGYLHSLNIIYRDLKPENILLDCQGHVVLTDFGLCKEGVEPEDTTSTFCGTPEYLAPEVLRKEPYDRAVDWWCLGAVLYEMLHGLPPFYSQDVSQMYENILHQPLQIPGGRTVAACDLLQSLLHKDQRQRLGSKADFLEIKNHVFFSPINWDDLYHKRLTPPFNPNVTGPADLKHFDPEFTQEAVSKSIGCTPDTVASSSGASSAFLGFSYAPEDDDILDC", "conditions": "read-out: SGK2, % of Control"}, "MINK": {"molecular_target": "MINK (Homo sapiens, UniProt Q8N4C8)", "sequence (Q8N4C8 whole entry)": "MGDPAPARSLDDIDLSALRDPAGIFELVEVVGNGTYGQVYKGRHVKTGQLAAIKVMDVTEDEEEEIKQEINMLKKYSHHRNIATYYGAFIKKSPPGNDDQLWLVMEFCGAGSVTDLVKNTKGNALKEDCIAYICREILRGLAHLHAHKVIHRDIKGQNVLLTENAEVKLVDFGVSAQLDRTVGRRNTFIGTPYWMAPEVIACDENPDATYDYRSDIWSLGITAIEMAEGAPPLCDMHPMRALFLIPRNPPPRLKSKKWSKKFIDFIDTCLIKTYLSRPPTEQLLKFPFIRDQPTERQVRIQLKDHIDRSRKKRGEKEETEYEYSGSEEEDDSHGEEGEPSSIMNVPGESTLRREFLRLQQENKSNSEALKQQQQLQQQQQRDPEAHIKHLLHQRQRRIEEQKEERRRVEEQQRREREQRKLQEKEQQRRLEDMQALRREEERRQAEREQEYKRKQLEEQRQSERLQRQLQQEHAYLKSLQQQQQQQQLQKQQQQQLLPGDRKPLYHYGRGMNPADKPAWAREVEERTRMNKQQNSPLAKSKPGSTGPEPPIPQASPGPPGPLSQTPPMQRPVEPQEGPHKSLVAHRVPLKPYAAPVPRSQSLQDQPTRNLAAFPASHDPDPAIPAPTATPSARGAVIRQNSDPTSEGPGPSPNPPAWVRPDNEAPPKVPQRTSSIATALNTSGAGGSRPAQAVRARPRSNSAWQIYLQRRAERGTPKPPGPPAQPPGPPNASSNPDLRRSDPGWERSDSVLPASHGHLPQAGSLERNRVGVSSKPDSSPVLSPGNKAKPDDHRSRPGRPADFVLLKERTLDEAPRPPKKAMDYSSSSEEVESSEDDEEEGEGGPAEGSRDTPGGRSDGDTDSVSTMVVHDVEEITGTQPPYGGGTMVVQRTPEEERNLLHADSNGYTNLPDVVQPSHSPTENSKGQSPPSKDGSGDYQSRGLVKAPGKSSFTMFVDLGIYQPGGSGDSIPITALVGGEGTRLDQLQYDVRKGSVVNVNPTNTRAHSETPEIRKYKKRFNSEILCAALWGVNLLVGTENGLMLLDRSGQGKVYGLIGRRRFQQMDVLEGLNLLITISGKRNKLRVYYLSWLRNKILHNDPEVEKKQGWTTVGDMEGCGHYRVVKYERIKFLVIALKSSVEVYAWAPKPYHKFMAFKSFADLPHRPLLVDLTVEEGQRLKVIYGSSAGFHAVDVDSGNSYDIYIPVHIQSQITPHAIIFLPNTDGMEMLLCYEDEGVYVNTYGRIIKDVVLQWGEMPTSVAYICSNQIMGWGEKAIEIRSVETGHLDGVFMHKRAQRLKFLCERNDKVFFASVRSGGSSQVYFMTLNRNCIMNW", "conditions": "read-out: MINK, % of Control"}, "Ron": {"molecular_target": "Ron (Homo sapiens, UniProt Q04912)", "conditions": "read-out: Ron, % of Control"}, "CHK1": {"molecular_target": "T2, CHK1 (Homo sapiens, UniProt O14757)", "T2 sequence (O14757 1-476)": "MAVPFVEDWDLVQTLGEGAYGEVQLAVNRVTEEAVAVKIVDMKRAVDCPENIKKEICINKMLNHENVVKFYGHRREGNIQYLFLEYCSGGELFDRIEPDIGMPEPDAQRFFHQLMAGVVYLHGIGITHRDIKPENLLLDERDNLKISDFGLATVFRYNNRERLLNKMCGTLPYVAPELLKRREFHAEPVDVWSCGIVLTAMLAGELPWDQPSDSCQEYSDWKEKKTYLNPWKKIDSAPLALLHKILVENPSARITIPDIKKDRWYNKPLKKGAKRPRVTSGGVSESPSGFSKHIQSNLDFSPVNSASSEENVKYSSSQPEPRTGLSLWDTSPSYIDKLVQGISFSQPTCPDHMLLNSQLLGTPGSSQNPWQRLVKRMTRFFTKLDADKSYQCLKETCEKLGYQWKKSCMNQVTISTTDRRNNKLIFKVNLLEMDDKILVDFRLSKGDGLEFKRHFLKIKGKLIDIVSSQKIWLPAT", "conditions": "read-out: CHK1, % of Control"}, "TBK1": {"molecular_target": "T3, TBK1 (Homo sapiens, UniProt Q9UHD2)", "T3 sequence (Q9UHD2 1-729)": "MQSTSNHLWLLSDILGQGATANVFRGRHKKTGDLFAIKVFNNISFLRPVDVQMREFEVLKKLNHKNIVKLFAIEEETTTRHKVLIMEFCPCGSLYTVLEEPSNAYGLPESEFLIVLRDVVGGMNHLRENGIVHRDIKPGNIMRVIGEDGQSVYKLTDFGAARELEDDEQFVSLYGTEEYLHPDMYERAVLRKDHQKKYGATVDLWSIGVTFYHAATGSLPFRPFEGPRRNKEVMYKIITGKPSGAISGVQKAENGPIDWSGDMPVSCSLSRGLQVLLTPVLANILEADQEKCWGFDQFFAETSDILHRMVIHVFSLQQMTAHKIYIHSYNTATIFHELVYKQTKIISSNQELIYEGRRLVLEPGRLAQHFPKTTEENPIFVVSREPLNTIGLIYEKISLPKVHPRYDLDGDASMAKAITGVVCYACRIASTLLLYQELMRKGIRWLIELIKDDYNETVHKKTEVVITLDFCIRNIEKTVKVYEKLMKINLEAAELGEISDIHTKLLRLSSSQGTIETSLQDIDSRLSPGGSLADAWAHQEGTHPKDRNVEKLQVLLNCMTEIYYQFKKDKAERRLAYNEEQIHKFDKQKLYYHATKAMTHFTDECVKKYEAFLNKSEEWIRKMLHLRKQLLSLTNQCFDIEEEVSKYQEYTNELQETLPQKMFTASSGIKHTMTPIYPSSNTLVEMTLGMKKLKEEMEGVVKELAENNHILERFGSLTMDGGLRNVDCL", "conditions": "read-out: TBK1, % of Control"}, "Rsk2": {"molecular_target": "Rsk2 (Homo sapiens, UniProt P51812)", "sequence (P51812 whole entry)": "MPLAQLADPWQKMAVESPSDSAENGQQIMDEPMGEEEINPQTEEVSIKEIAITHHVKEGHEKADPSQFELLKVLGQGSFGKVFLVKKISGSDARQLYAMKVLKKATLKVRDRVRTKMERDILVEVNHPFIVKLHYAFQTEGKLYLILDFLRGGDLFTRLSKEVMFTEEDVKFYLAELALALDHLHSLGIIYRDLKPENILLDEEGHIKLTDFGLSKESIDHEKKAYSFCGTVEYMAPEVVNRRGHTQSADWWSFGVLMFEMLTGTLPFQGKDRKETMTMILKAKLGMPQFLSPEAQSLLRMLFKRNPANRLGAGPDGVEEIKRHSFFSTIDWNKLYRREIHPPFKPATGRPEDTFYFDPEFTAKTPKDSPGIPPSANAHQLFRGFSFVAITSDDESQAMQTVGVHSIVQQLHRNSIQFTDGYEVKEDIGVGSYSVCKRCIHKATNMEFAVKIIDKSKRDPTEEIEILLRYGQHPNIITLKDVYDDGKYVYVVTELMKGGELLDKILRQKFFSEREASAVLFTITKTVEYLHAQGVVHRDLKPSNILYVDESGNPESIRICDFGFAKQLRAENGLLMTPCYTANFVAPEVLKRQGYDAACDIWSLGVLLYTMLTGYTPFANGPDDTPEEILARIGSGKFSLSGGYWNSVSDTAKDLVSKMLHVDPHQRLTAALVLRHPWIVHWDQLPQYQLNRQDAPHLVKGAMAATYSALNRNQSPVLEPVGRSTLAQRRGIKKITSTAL", "conditions": "read-out: Rsk2, % of Control"}, "CK1δ": {"molecular_target": "CK1δ (Homo sapiens, UniProt P48730)", "sequence (P48730 whole entry)": "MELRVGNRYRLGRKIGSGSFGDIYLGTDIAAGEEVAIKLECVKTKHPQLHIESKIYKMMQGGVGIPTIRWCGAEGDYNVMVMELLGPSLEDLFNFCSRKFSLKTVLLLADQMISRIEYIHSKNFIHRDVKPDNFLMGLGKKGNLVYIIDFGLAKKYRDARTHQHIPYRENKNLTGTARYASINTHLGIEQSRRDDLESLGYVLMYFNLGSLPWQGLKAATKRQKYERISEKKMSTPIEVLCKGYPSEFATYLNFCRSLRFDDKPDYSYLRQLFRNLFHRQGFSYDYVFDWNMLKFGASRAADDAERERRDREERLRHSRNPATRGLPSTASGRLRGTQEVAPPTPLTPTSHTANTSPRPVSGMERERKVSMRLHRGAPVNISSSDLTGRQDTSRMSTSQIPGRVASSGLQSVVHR", "conditions": "read-out: CK1δ, % of Control"}}}
{"smiles": "COc1cc(O)c(CC=C(C)C)c(O)c1C(=O)/C=C/c1ccc(O)cc1", "note": "[Xanthohumol, xanthohumol]", "values": [{"measurement": "remaining activity at 1 µg/mL", "setting": "PrKX; 1 ug/ml", "value": 92, "unit": "%"}, {"measurement": "remaining activity at 50 µg/mL", "setting": "PrKX; 50 ug/ml", "value": 3, "unit": "%"}, {"measurement": "remaining activity at 1 µg/mL", "setting": "p70S6K; 1 ug/ml", "value": 94, "unit": "%"}, {"measurement": "remaining activity at 5 µg/mL", "setting": "p70S6K; 5 ug/ml", "value": 48, "unit": "%"}, {"measurement": "remaining activity at 25 µg/mL", "setting": "p70S6K; 25 ug/ml", "value": 19, "unit": "%"}, {"measurement": "remaining activity at 50 µg/mL", "setting": "p70S6K; 50 ug/ml", "value": 7, "unit": "%"}, {"measurement": "remaining activity at 1 µg/mL", "setting": "PAK6; 1 ug/ml", "value": 105, "unit": "%"}, {"measurement": "remaining activity at 5 µg/mL", "setting": "PAK6; 5 ug/ml", "value": 94, "unit": "%"}, {"measurement": "remaining activity at 25 µg/mL", "setting": "PAK6; 25 ug/ml", "value": 14, "unit": "%"}, {"measurement": "remaining activity at 1 µg/mL", "setting": "Fyn; 1 ug/ml", "value": 104, "unit": "%"}, {"measurement": "remaining activity at 5 µg/mL", "setting": "Fyn; 5 ug/ml", "value": 66, "unit": "%"}, {"measurement": "remaining activity at 25 µg/mL", "setting": "Fyn; 25 ug/ml", "value": 42, "unit": "%"}, {"measurement": "remaining activity at 50 µg/mL", "setting": "Fyn; 50 ug/ml", "value": 18, "unit": "%"}, {"measurement": "remaining activity at 1 µg/mL", "setting": "SGK2; 1 ug/ml", "value": 130, "unit": "%"}, {"measurement": "remaining activity at 5 µg/mL", "setting": "SGK2; 5 ug/ml", "value": 110, "unit": "%"}, {"measurement": "remaining activity at 50 µg/mL", "setting": "SGK2; 50 ug/ml", "value": -4, "unit": "%"}, {"measurement": "remaining activity at 1 µg/mL", "setting": "MINK; 1 ug/ml", "value": 42, "unit": "%"}, {"measurement": "remaining activity at 5 µg/mL", "setting": "MINK; 5 ug/ml", "value": 10, "unit": "%"}, {"measurement": "remaining activity at 25 µg/mL", "setting": "MINK; 25 ug/ml", "value": 5, "unit": "%"}, {"measurement": "remaining activity at 50 µg/mL", "setting": "MINK; 50 ug/ml", "value": 7, "unit": "%"}, {"measurement": "remaining activity at 1 µg/mL", "setting": "Ron; 1 ug/ml", "value": 135, "unit": "%"}, {"measurement": "remaining activity at 5 µg/mL", "setting": "Ron; 5 ug/ml", "value": 127, "unit": "%"}, {"measurement": "remaining activity at 25 µg/mL", "setting": "Ron; 25 ug/ml", "value": 60, "unit": "%"}, {"measurement": "remaining activity at 50 µg/mL", "setting": "Ron; 50 ug/ml", "value": 69, "unit": "%"}, {"measurement": "remaining activity at 1 µg/mL", "setting": "CHK1; 1 ug/ml", "value": 121, "unit": "%"}, {"measurement": "remaining activity at 5 µg/mL", "setting": "CHK1; 5 ug/ml", "value": 126, "unit": "%"}, {"measurement": "remaining activity at 25 µg/mL", "setting": "CHK1; 25 ug/ml", "value": 142, "unit": "%"}, {"measurement": "remaining activity at 50 µg/mL", "setting": "CHK1; 50 ug/ml", "value": 149, "unit": "%"}, {"measurement": "remaining activity at 1 µg/mL", "setting": "TBK1; 1 ug/ml", "value": 104, "unit": "%"}, {"measurement": "remaining activity at 5 µg/mL", "setting": "TBK1; 5 ug/ml", "value": 71, "unit": "%"}, {"measurement": "remaining activity at 25 µg/mL", "setting": "TBK1; 25 ug/ml", "value": 45, "unit": "%"}, {"measurement": "remaining activity at 50 µg/mL", "setting": "TBK1; 50 ug/ml", "value": 42, "unit": "%"}, {"measurement": "remaining activity at 1 µg/mL", "setting": "Rsk2; 1 ug/ml", "value": 96, "unit": "%"}, {"measurement": "remaining activity at 5 µg/mL", "setting": "Rsk2; 5 ug/ml", "value": 43, "unit": "%"}, {"measurement": "remaining activity at 25 µg/mL", "setting": "Rsk2; 25 ug/ml", "value": 3, "unit": "%"}, {"measurement": "remaining activity at 5 µg/mL", "setting": "CK1δ; 5 ug/ml", "value": 32, "unit": "%"}, {"measurement": "remaining activity at 25 µg/mL", "setting": "CK1δ; 25 ug/ml", "value": 16, "unit": "%"}, {"measurement": "remaining activity at 50 µg/mL", "setting": "CK1δ; 50 ug/ml", "value": 12, "unit": "%"}]}
